The values that follow come from PubChem BioAssay AID2060897 (Molecular Pharmacology Branch, DTP, NCI, 2025).

This experiment concerns 966289-007-R4-J1-PDC complex spheroid viability. Description: Anticancer human tumor 966289-007-R4-J1-PDC patient-derived pancreatic adenocarcinoma cell line growth inhibition [RAS]. The settings on record: for viability, T/C: stronger effect = lower value. A digest of the protocol:
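Tumour cells grown as complex spheroids with HUVEC endothelial cells and mesenchymal stem cells, treated with RAS pathway inhibitor combinations. Each agent spans half-log steps from near clinical Cmax, or 10 microM where Cmax is unknown.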

Several values for one entry are separate records, joined by “and”; a condition that tells them apart may be missing. Identical values can stand only once.
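Note: spheroids exposed to agents for one week before readout.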
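Throughout, for viability, T/C: percent viability relative to DMSO vehicle control wells as 100%.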

Consider `CCc1c2c(nc3ccc(O)cc13)-c1cc3c(c(=O)n1C2)COC(=O)[C@]3(O)CC` + CCn1c(-c2cccnc2C(C)OC)c2c3cc(ccc31)N1CCOC(CC(NC(=O)C(C(C)C)N(C)C(=O)C3(F)CCN(C(=O)C#CC(C)(C)N(C)C)CC3)C(=O)N3CCCC(N3)C(=O)OCC(C)(C)C2)C1, for which the IC50 was 1.76 nM (curve of first compound, second compound 0.000949 µM); 1.73 nM (curve of first compound, second compound 0.003 µM); 1.62 nM (curve of first compound, second compound 0.00949 µM); 1.18 nM (curve of first compound, second compound 0.03 µM); 0.96 nM (curve of first compound, second compound 0.0949 µM); below 0.949 nM (curve of first compound, second compound 0.3 µM). Moreover, the viability, T/C is, setting by setting: (second compound 0.000949 µM, first compound 0.000949 µM) 103%; (second compound 0.000949 µM, first compound 0.003 µM) 4.09%; (second compound 0.000949 µM, first compound 0.00949 µM) 0.96%; (second compound 0.000949 µM, first compound 0.03 µM) 0.65%; (second compound 0.000949 µM, first compound 0.0949 µM) 0.49%; (second compound 0.000949 µM, first compound 0.3 µM) 0.69%. Moreover, the viability, T/C was 99.8% (second compound 0.003 µM, first compound 0.000949 µM); 4.15% (second compound 0.003 µM, first compound 0.003 µM); 0.79% (second compound 0.003 µM, first compound 0.00949 µM); 0.63% (second compound 0.003 µM, first compound 0.03 µM); 0.64% (second compound 0.003 µM, first compound 0.0949 µM); 0.67% (second compound 0.003 µM, first compound 0.3 µM). The viability, T/C is 89.8% (second compound 0.00949 µM, first compound 0.000949 µM); 4.69% (second compound 0.00949 µM, first compound 0.003 µM); 1.12% (second compound 0.00949 µM, first compound 0.00949 µM); 0.52% (second compound 0.00949 µM, first compound 0.03 µM); 0.51% (second compound 0.00949 µM, first compound 0.0949 µM); 0.56% (second compound 0.00949 µM, first compound 0.3 µM). The viability, T/C runs as follows: (second compound 0.03 µM, first compound 0.000949 µM) 60.8%; (second compound 0.03 µM, first compound 0.003 µM) 3.34%; (second compound 0.03 µM, first compound 0.00949 µM) 1.17%; (second compound 0.03 µM, first compound 0.03 µM) 0.76%; (second compound 0.03 µM, first compound 0.0949 µM) 0.58%; (second compound 0.03 µM, first compound 0.3 µM) 0.79%. The viability, T/C (second compound 0.0949 µM, first compound 0.000949 µM) was 50.5%; the viability, T/C (second compound 0.0949 µM, first compound 0.003 µM) is 2.92%; the viability, T/C (second compound 0.0949 µM, first compound 0.00949 µM) is 0.55%; the viability, T/C (second compound 0.0949 µM, first compound 0.03 µM) was 0.56%; the viability, T/C (second compound 0.0949 µM, first compound 0.0949 µM) is 0.56%; the viability, T/C (second compound 0.0949 µM, first compound 0.3 µM) was 0.53%. For the same compound, the viability, T/C is 18.4% (second compound 0.3 µM, first compound 0.000949 µM); 1.07% (second compound 0.3 µM, first compound 0.003 µM); 0.76% (second compound 0.3 µM, first compound 0.00949 µM); 0.59% (second compound 0.3 µM, first compound 0.03 µM); 0.68% (second compound 0.3 µM, first compound 0.0949 µM); 0.5% (second compound 0.3 µM, first compound 0.3 µM).

As to `CC1(O)CCCC1n1c(=O)c(C(F)F)cc2cnc(NC3CCN(S(C)(=O)=O)CC3)nc21` (configuration not stated), the viability, T/C (compound 0.1 µM) was 56.9% [middle of 4 runs]; the viability, T/C (compound 0.316 µM) was 27.7% [middle of 4 runs]; the viability, T/C (compound 1 µM) is 31.8% [middle of 4 runs]; the viability, T/C (compound 3.16 µM) is 28.4% [middle of 4 runs]; the viability, T/C (compound 10 µM) is 4.66% [middle of 4 runs]. Under “curve of compound”, the half-maximal inhibitory concentration (IC50) was 145 nM [middle of 4 runs].

As to `NC1c2ccccc2OC12CCN(c1cnc3c(N4CCCc5ncccc54)n[nH]c3n1)CC2` (configuration not stated) + C=CC(=O)N1CCN(c2nc(OCC3CCCN3C)nc3c(F)c(-c4nc(N)cc(C)c4C(F)(F)F)c(Cl)cc23)C(C)C1, the IC50 was above 10000 nM (curve of first compound, second compound 0.00316 µM); above 10000 nM (curve of first compound, second compound 0.01 µM); above 10000 nM (curve of first compound, second compound 0.0316 µM); above 10000 nM (curve of first compound, second compound 0.1 µM); above 10000 nM (curve of first compound, second compound 0.316 µM); above 10000 nM (curve of first compound, second compound 1 µM). In addition, the viability, T/C by setting is: (second compound 0.00316 µM, first compound 0.0316 µM) 117%; (second compound 0.00316 µM, first compound 0.1 µM) 90.1%; (second compound 0.00316 µM, first compound 0.316 µM) 126%; (second compound 0.00316 µM, first compound 1 µM) 102%; (second compound 0.00316 µM, first compound 3.16 µM) 113%; (second compound 0.00316 µM, first compound 10 µM) 103%. The viability, T/C (second compound 0.01 µM, first compound 0.0316 µM) is 113%; the viability, T/C (second compound 0.01 µM, first compound 0.1 µM) was 104%; the viability, T/C (second compound 0.01 µM, first compound 0.316 µM) was 104%; the viability, T/C (second compound 0.01 µM, first compound 1 µM) is 122%; the viability, T/C (second compound 0.01 µM, first compound 3.16 µM) was 107%; the viability, T/C (second compound 0.01 µM, first compound 10 µM) was 118%. The viability, T/C runs as follows: (second compound 0.0316 µM, first compound 0.0316 µM) 113%; (second compound 0.0316 µM, first compound 0.1 µM) 103%; (second compound 0.0316 µM, first compound 0.316 µM) 133%; (second compound 0.0316 µM, first compound 1 µM) 113%; (second compound 0.0316 µM, first compound 3.16 µM) 126%; (second compound 0.0316 µM, first compound 10 µM) 119%. Further, the viability, T/C was 101% (second compound 0.1 µM, first compound 0.0316 µM); 103% (second compound 0.1 µM, first compound 0.1 µM); 94.2% (second compound 0.1 µM, first compound 0.316 µM); 105% (second compound 0.1 µM, first compound 1 µM); 119% (second compound 0.1 µM, first compound 3.16 µM); 107% (second compound 0.1 µM, first compound 10 µM). Further, the viability, T/C is, setting by setting: (second compound 0.316 µM, first compound 0.0316 µM) 109%; (second compound 0.316 µM, first compound 0.1 µM) 91.4%; (second compound 0.316 µM, first compound 0.316 µM) 107%; (second compound 0.316 µM, first compound 1 µM) 120%; (second compound 0.316 µM, first compound 3.16 µM) 102%; (second compound 0.316 µM, first compound 10 µM) 106%. Moreover, the viability, T/C (second compound 1 µM, first compound 0.0316 µM) was 105%; the viability, T/C (second compound 1 µM, first compound 0.1 µM) is 114%; the viability, T/C (second compound 1 µM, first compound 0.316 µM) was 123%; the viability, T/C (second compound 1 µM, first compound 1 µM) is 113%; the viability, T/C (second compound 1 µM, first compound 3.16 µM) was 116%; the viability, T/C (second compound 1 µM, first compound 10 µM) is 124%.

For the compound `NC1c2ccccc2OC12CCN(c1cnc3c(N4CCCc5ncccc54)n[nH]c3n1)CC2` (configuration not stated), the viability, T/C was 92.9% [middle of 4 runs] (compound 0.1 µM); 107% [middle of 4 runs] (compound 0.316 µM); 116% and 63.2% and 101% (2×) (compound 1 µM); 99.6% [middle of 4 runs] (compound 10 µM). Moreover, the IC50 (curve of compound) was above 10000 nM.

For `CC(C)n1nc(-c2ccc3oc(N)nc3c2)c2c(N)ncnc21`, the viability, T/C by setting is: (compound 0.0316 µM) 52.2% [middle of 4 runs]; (compound 0.1 µM) 18.5% [middle of 4 runs]. Moreover, the IC50 (curve of compound) was 33.4 nM [middle of 4 runs].

As for `Cc1nc(N2CCC3(CC2)COC(C)C3N)c(CO)nc1Sc1ccnc(N)c1Cl` (configuration not stated), the viability, T/C (compound 0.316 µM) was 108% [middle of 4 runs]; the viability, T/C (compound 1 µM) was 102% (2×) and 73.6% and 119%; the viability, T/C (compound 10 µM) is 95.5% [middle of 4 runs]. In addition, for the setting “curve of compound”, the IC50 is above 10000 nM.

By IC50 is commonly meant the midpoint of a concentration-inhibition curve. As a reminder, the viability, T/C is the result in the treated group divided by that in the control group, in per cent.
